Where two headings read alike, the source gives them in different places.
Legend:
[1] = target: T1, human B1R receptor (hB1R) (Homo sapiens, UniProt P46663); test: FLIPR Ca2+ assay on hB1R-transfected CHO K1 cells, antagonistic action; assay type: cell-based
T1 construct: host or cells: CHO K1 cells
T1 sequence (P46663 1-353): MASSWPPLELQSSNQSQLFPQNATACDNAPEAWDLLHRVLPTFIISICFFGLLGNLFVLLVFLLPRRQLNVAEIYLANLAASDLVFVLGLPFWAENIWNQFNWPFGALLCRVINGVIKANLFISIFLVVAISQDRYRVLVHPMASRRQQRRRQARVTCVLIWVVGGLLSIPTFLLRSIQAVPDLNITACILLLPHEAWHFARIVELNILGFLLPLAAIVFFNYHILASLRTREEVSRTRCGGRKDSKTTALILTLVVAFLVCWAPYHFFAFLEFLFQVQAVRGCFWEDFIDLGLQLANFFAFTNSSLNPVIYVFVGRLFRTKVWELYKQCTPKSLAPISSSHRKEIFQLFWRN

[2] = target: T2, B1R receptor of the rat (rB1R) (Rattus norvegicus, UniProt P97583); test: FLIPR Ca2+ assay on rB1R-transfected CHO K1 cells, antagonistic action; assay type: cell-based
T2 construct: host or cells: CHO K1 cells
T2 sequence (P97583 1-337): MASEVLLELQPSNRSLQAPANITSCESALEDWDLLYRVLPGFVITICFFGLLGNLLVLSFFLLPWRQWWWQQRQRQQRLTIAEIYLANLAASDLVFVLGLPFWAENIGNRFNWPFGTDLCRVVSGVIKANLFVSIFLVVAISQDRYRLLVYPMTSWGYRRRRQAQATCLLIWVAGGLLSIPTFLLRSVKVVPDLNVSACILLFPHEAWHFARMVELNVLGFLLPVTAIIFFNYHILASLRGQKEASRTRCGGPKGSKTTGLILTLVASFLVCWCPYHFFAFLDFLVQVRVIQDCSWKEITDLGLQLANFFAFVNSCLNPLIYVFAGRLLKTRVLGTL

[3] = CHO-K1, 10 μM test substance, agonist Lys-Des-Arg9-bradykinin 0.5 nM, % of maximum achievable inhibition, read-out: hB1R [10 μM] % inhibition
[4] = CHO-K1, 10 μM test substance, agonist Des-Arg9-bradykinin 100 nM, % of maximum achievable inhibition, read-out: rB1R [10 μM] % inhibition
[5] = CHO-K1, read-out: hB1R [10 μM] % inhibition
[6] = CHO-K1, read-out: rB1R [10 μM] % inhibition

Structure (SMILES)	inhibition at 10 µM [1, 3]	inhibition at 10 µM [2, 4]	inhibition at 10 µM [1, 5]	inhibition at 10 µM [2, 6]
COc1cc(C)c(S(=O)(=O)N2CCCC[C@H]2COCC(=O)N(C)CCC2CCC(c3ccccc3)(N3CCC3)CC2)c(C)c1 (stereo partly drawn) [Compound 201, (S)-N-(2-(4-(azetidin-1-yl)-4-phenylcyclohexyl)ethyl)-2-((1-(4-methoxy-2,6-dimethylphenylsulfonyl)piperidin-2-yl)methoxy)-N-methylacetamide]	100%	97%	–	–
COc1cc(C)c(S(=O)(=O)N2CCCCC2COCC(=O)N2CCC(c3ccccc3)(N(C)C)CC2)c(C)c1 (stereo not drawn) [Compound 202, 1-(4-(dimethylamino)-4-phenylpiperidin-1-yl)-2-((1-(4-methoxy-2,6-dimethylphenylsulfonyl)piperidin-2-yl)methoxy)ethanone]	100%	103%	–	–
COc1cc(C)c(S(=O)(=O)N2CCCCC2COCC(=O)N(C)CCCC2CCC(c3ccccc3)(N(C)C)CC2)c(C)c1 (stereo not drawn) [Compound 203, N-(3-(4-(dimethylamino)-4-phenylcyclohexyl)propyl)-2-((1-(4-methoxy-2,6-dimethylphenylsulfonyl)piperidin-2-yl)methoxy)-N-methylacetamide]	99%	98%	–	–
COc1cc(C)c(S(=O)(=O)N2CCCCC2COCC(=O)N(C)CCCC2CCC(c3cccc(F)c3)(N3CCCC3)CC2)c(C)c1 (stereo not drawn) [Compound 204, N-(3-(4-(3-fluorophenyl)-4-(pyrrolidin-1-yl)cyclohexyl)propyl)-2-((1-(4-methoxy-2,6-dimethylphenylsulfonyl)piperidin-2-yl)methoxy)-N-methylacetamide]	99%	103%	–	–
COc1cc(C)c(S(=O)(=O)N2CCCCC2COCC(=O)N(C)CCCC2CCC(c3ccccc3)(N3CCC3)CC2)c(C)c1 (stereo not drawn) [Compound 205, N-(3-(4-(azetidin-1-yl)-4-phenylcyclohexyl)propyl)-2-((1-(4-methoxy-2,6-dimethylphenylsulfonyl)piperidin-2-yl)methoxy)-N-methylacetamide]	100%	100%	–	–
COc1cc(C)c(S(=O)(=O)N(C)CCOCC(=O)N2CCC(c3ccncc3)(N(C)C)CC2)c(C)c1 [Compound 206, N-(2-(2-(4-(dimethylamino)-4-(pyridin-4-yl)piperidin-1-yl)-2-oxoethoxy)ethyl)-4-methoxy-N,2,6-trimethylbenzenesulfonamide]	100%	99%	–	–
COc1cc(C)c(S(=O)(=O)N(C)CCOCC(=O)N(C)CCC2CCC(c3cccnc3)(N(C)C)CC2)c(C)c1 (stereo not drawn) [Compound 207, N-(2-(4-(Dimethylamino)-4-(pyridin-3-yl)cyclohexyl)ethyl)-2-(2-(4-methoxy-N,2,6-trimethylphenylsulfonamido)ethoxy)-N-methylacetamide]	100%	101%	–	–
COc1cc(C)c(S(=O)(=O)N(C)CCOCC(=O)N2CCC(c3cccnc3)(N(C)C)CC2)c(C)c1 [Compound 208, N-(2-(2-(4-(Dimethylamino)-4-(pyridin-3-yl)piperidin-1-yl)-2-oxoethoxy)ethyl)-4-methoxy-N,2,6-trimethylbenzenesulfonamide]	100%	102%	–	–
CNC1(c2ccncc2)CCN(C(=O)COCCN(C)S(=O)(=O)c2c(C)cc(OC)cc2C)CC1 [Compound 209, 4-Methoxy-N,2,6-trimethyl-N-(2-(2-(4-(methylamino)-4-(pyridin-4-yl)piperidin-1-yl)-2-oxoethoxy)ethyl)benzenesulfonamide]	–	–	100%	99%
COc1cc(C)c(S(=O)(=O)N(C)CCOCC(=O)N2CCC(c3cccc(F)c3)(N3CCN(C)CC3)CC2)c(C)c1 [Compound 210, N-(2-(2-(4-(3-Fluorophenyl)-4-(4-methylpiperazin-1-yl)piperidin-1-yl)-2-oxoethoxy)ethyl)-4-methoxy-N,2,6-trimethylbenzenesulfonamide]	100%	101%	–	–
COc1cc(C)c(S(=O)(=O)N2CCCCC2COCC(=O)N2CCC(c3cccc(F)c3)(N3CCN(C)CC3)CC2)c(C)c1 (stereo not drawn) [Compound 211, 1-(4-(3-Fluorophenyl)-4-(4-methylpiperazin-1-yl)piperidin-1-yl)-2-((1-(4-methoxy-2,6-dimethylphenylsulfonyl)piperidin-2-yl)methoxy)ethanone]	100%	101%	–	–
Cc1cccc(Cl)c1S(=O)(=O)N1CCCCC1CCCC(=O)N1CCC(c2cccc(F)c2)(N2CCN(C)CC2)CC1 (stereo not drawn) [Compound 212, 4-(1-(2-Chloro-6-methylphenylsulfonyl)piperidin-2-yl)-1-(4-(3-fluorophenyl)-4-(4-methylpiperazin-1-yl)piperidin-1-yl)butan-1-one]	100%	100%	–	–
CN1CCN(C2(c3cccc(F)c3)CCN(C(=O)CCCC3CCCCN3S(=O)(=O)c3ccccc3C(F)(F)F)CC2)CC1 (stereo not drawn) [Compound 213, 1-(4-(3-Fluorophenyl)-4-(4-methylpiperazin-1-yl)piperidin-1-yl)-4-(1-(2-(trifluoromethyl)phenylsulfonyl)piperidin-2-yl)butan-1-one]	–	–	100%	100%
COc1cc(C)c(S(=O)(=O)N2CCCCC2CCCC(=O)N2CCC(c3cccc(F)c3)(N3CCN(C)CC3)CC2)c(C)c1 (stereo not drawn) [Compound 214, 1-(4-(3-Fluorophenyl)-4-(4-methylpiperazin-1-yl)piperidin-1-yl)-4-(1-(4-methoxy-2,6-dimethylphenylsulfonyl)piperidin-2-yl)butan-1-one]	99%	101%	–	–
CN1CCN(C2(c3cccc(F)c3)CCN(C(=O)CCCC3CCCCN3S(=O)(=O)c3cccc4ccccc34)CC2)CC1 (stereo not drawn) [Compound 215, 1-(4-(3-Fluorophenyl)-4-(4-methylpiperazin-1-yl)piperidin-1-yl)-4-(1-(naphthalen-1-ylsulfonyl)piperidin-2-yl)butan-1-one]	–	–	100%	100%
CN1CCN(C2(c3cccc(F)c3)CCN(C(=O)CCCC3CCCCN3S(=O)(=O)c3ccc4ccccc4c3)CC2)CC1 (stereo not drawn) [Compound 216, 1-(4-(3-Fluorophenyl)-4-(4-methylpiperazin-1-yl)piperidin-1-yl)-4-(1-(naphthalen-2-ylsulfonyl)piperidin-2-yl)butan-1-one]	100%	95%	–	–
COc1cc(C)c(S(=O)(=O)N2CCC(OCC(=O)N3CCC(c4cccc(F)c4)(N4CCN(C)CC4)CC3)C2)c(C)c1 (stereo not drawn) [Compound 217, 1-(4-(3-Fluorophenyl)-4-(4-methylpiperazin-1-yl)piperidin-1-yl)-2-(1-(4-methoxy-2,6-dimethylphenylsulfonyl)pyrrolidin-3-yloxy)ethanone]	100%	98%	–	–
COc1cc(C)c(S(=O)(=O)N2c3ccccc3OCC2COCC(=O)N2CCC(c3cccc(F)c3)(N3CCN(C)CC3)CC2)c(C)c1 (stereo not drawn) [Compound 221, 1-(4-(3-Fluorophenyl)-4-(4-methylpiperazin-1-yl)piperidin-1-yl)-2-((4-(4-methoxy-2,6-dimethylphenylsulfonyl)-3,4-dihydro-2H-benzo[b][1,4]oxazin-3-yl)methoxy)ethanone]	99%	99%	–	–
Cc1cccc(Cl)c1S(=O)(=O)N1c2ccccc2OCC1COCC(=O)N1CCC(c2cccc(F)c2)(N2CCN(C)CC2)CC1 (stereo not drawn) [Compound 222, 2-((4-(2-Chloro-6-methylphenylsulfonyl)-3,4-dihydro-2H-benzo[b][1,4]oxazin-3-yl)methoxy)-1-(4-(3-fluorophenyl)-4-(4-methylpiperazin-1-yl)piperidin-1-yl)ethanone]	97%	97%	–	–
CN1CCN(C2(c3cccc(F)c3)CCN(C(=O)COCC3COc4ccccc4N3S(=O)(=O)c3ccccc3C(F)(F)F)CC2)CC1 (stereo not drawn) [Compound 223, 1-(4-(3-Fluorophenyl)-4-(4-methylpiperazin-1-yl)piperidin-1-yl)-2-((4-(2-(trifluoromethyl)phenylsulfonyl)-3,4-dihydro-2H-benzo[b][1,4]oxazin-3-yl)methoxy)ethanone]	84%	97%	–	–
CN1CCN(C2(c3cccc(F)c3)CCN(C(=O)COCC3CCCCN3S(=O)(=O)c3ccccc3C(F)(F)F)CC2)CC1 (stereo not drawn) [Compound 225, 1-(4-(3-Fluorophenyl)-4-(4-methylpiperazin-1-yl)piperidin-1-yl)-2-((1-(2-(trifluoromethyl)phenylsulfonyl)piperidin-2-yl)methoxy)ethanone]	–	–	100%	101%

Source: patent US20090253669A1, “Substituted Sulfonamide Compounds” (GRUENENTHAL GmbH, priority 2008, published 2009)
